From article PMC10002984, “Dual PTP1B/TC-PTP Inhibitors: Biological Evaluation of 3-(Hydroxymethyl)cinnoline-4(1H)-Ones” (International Journal of Molecular Sciences, 2023)

Experiments:
Shp1 gene = experiment: Gene expression in the liver of obese rats (qPCR), Shp1 gene; type: in vivo, rat; details: five-day treatment
Protocol: (§1) Further, six groups were formed: control (Con, n = 10), obesity (Ob, n = 10), obese rats with five-day treatment with compounds 1 (Ob + 1, n = 5), 2 (Ob + 2, n = 5), 3 (Ob + 3, n = 10), and 4 (Ob + 4, n = 10). All compounds were administered in DMSO (300 µL) at a daily dose of 7 mg/kg (1 and 2), 8 mg/kg (3), and 10 mg/kg (4) (i.p.), based on the results of the preliminary experiments. The used doses of compounds 1–4, in terms of the number of moles of each compound per kg of animal body weight, were equivalent. Control and obese rats received DMSO in the same volumes (300 µL), instead of the tested compounds. During the five days of the experiment, all animals were transferred to standard food and had free access to food and drinking water. […] The test was carried out on the morning of the next day after the last (fifth) injection of the compounds or DMSO, after a 10 h fast. The rest of the animals (n = 5 in each group) were anesthetized and decapitated on the last day of the experiment. The blood and liver samples were taken to measure blood glucose and hormone levels and gene expression in the liver.
The total RNA was isolated from the liver samples of rats using the “ExtractRNA Reagent” (Evrogen, Moscow, Russia), and the samples containing 1 μg of RNA were transcribed to cDNA using the random oligodeoxynucleotide primers and the “MMLV RT kit” (Evrogen, Russia). The amplification procedure was carried out in the mixture containing 10 ng of reverse transcribed product, 0.4 μM of the forward and reverse primers, and the “qPCRmix-HS SYBR + LowROX kit” (Evrogen, Russia). The amplified signals were detected using the “Applied Biosystems® 7500 Real-Time PCR System” (Life Technologies, Carlsbad, CA, USA, Thermo Fisher Scientific Inc., USA). The primers that were used to assess the expression of genes encoding the phosphatase PTP1B, TC-PTP, and SHP1 and the insulin and leptin receptors are presented in Table 4. The obtained data were calculated with the delta–delta Ct method and expressed as a fold expression, relative to the corresponding control. The expression of the gene encoding 18S RNA was used as an endogenous control.

[1] = system: leptin receptor gene (LepR); experiment: Gene expression in the liver of obese rats (qPCR), leptin receptor gene; type: in vivo, rat; details: five-day treatment, difference with Ob group not significant
Protocol: (§2) Further, six groups were formed: control (Con, n = 10), obesity (Ob, n = 10), obese rats with five-day treatment with compounds 1 (Ob + 1, n = 5), 2 (Ob + 2, n = 5), 3 (Ob + 3, n = 10), and 4 (Ob + 4, n = 10). All compounds were administered in DMSO (300 µL) at a daily dose of 7 mg/kg (1 and 2), 8 mg/kg (3), and 10 mg/kg (4) (i.p.), based on the results of the preliminary experiments. The used doses of compounds 1–4, in terms of the number of moles of each compound per kg of animal body weight, were equivalent. Control and obese rats received DMSO in the same volumes (300 µL), instead of the tested compounds. During the five days of the experiment, all animals were transferred to standard food and had free access to food and drinking water. […]
(§3) The total RNA was isolated from the liver samples of rats using the “ExtractRNA Reagent” (Evrogen, Moscow, Russia), and the samples containing 1 μg of RNA were transcribed to cDNA using the random oligodeoxynucleotide primers and the “MMLV RT kit” (Evrogen, Russia). […] The amplified signals were detected using the “Applied Biosystems® 7500 Real-Time PCR System” (Life Technologies, Carlsbad, CA, USA, Thermo Fisher Scientific Inc., USA). […] The obtained data were calculated with the delta–delta Ct method and expressed as a fold expression, relative to the corresponding control. […]

PTP1B gene = experiment: Gene expression in the liver of obese rats (qPCR), PTP1B gene; type: in vivo, rat; details: five-day treatment, vs Ob group
Protocol: as §2, §3

[2] = system: insulin receptor gene (InsR); experiment: Gene expression in the liver of obese rats (qPCR), insulin receptor gene; type: in vivo, rat; details: five-day treatment, difference with Ob group not significant
Protocol: as §2, §3

[3] = system: male rats with HFD-induced obesity; experiment: Glucose tolerance test in obese rats after five-day treatment; type: in vivo, male Wistar rats; details: 4 10 mg/kg/day; for reduction of AUC0-120 of the glucose concentration curve vs untreated animals: GTT after five-day treatment, p < 0.05 vs Ob group; for reduction of AUC0-120 of the glucose concentration curve vs untreated animals / reduction of glucose level 120 min after glucose load vs untreated obese animals: 3 8 mg/kg/day; for reduction of glucose level 120 min after glucose load vs untreated obese animals: GTT glucose 2 g/kg i.p. after five-day treatment
Description: (§4) The obesity model was induced at 16-weeks (starting at two months of age) using a high-fat diet. Control animals received standard laboratory chow pellets. The high-fat diet included supplements of 5–7 g of a fat mixture containing 52.4% pork lard, 41.7% curd, 5% liver, 0.5% L-methionine, 0.2% baker’s yeast, and 0.2% sodium chloride. After 16-weeks on a high-fat diet, the animals with increased body weight, glucose intolerance, and hyperinsulinemia, and hyperleptinemia were selected for further experiments. The glucose intolerance was estimated according to the results of the glucose tolerance test (GTT). In the GTT, 120 min after glucose loading, the blood glucose levels in obese rats were above 7 mM, and the AUC0-120 values for the curve “glucose concentration (mM)–time (minutes)” were above 30%, as compared to the average AUC0-120 values in the control group.
as §1
The glucose levels in the blood obtained from the tail vein were measured using a glucometer (Life Scan Johnson & Johnson, Denmark) and the test strips “One Touch Ultra” (USA). The levels of insulin and leptin in rat serum were estimated with the “Rat Insulin ELISA” (Mercodia AB, Uppsala, Sweden) and “ELISA for Leptin, Rat” (Cloud-Clone Corporation, Houston, TX, USA) kits. The GTT was carried out using a single injection of glucose (2 g/kg, i.p.) after 10 h of fasting, as described earlier. The blood glucose levels were measured before (0 min) and 15, 30, 60, and 120 min after the glucose load.

[4] = system: male rats with HFD-induced obesity; experiment: Body weight and food intake in obese rats, five-day treatment; type: in vivo, male Wistar rats; details: five-day treatment i.p., 3 8 mg/kg/day, 4 10 mg/kg/day; for reduction of body weight in obese rats: p < 0.05 vs untreated obese animals; for reduction of the consumption of dry standard food: obese rats
Protocol: The male Wistar rats (at the start of the experiment the age of the animals was 2-months, and at the end of the experiment their age was 6-months) were obtained from the Rappolovo animal facility (Russia). The animals were housed in plastic cages, five animals in each, with a normal light–dark cycle (12 h/12 h), a temperature of 22 ± 3 °C, and free access to food and water. All experiments were approved by the Institutional Animal Care and Use Committee at the Sechenov Institute of Evolutionary Physiology and Biochemistry (St. Petersburg, Russia) (protocol No 02/02-2020, 19 February 2020) and according to The Guide for the Care and Use of Laboratory Animals and the European Communities Council Directive of 1986 (86/609/EEC). All efforts were made to minimize animal suffering and reduce the number of experimental animals.
as §4
as §1, with “The blood and liver samples were taken to measure blood glucose and hormone levels and gene expression in the liver.” left out

| expression of the gene encoding the leptin receptor in the liver [1] | expression of the gene encoding the insulin receptor in the liver [2] | SMILES | expression of the Shp1 gene in the liver (Shp1 gene) | expression of the PTP1B gene in the liver (PTP1B gene) | reduction of AUC0-120 of the glucose concentration curve vs untreated animals [3] | reduction of glucose level 120 min after glucose load vs untreated obese animals [3] | reduction of body weight in obese rats [4] | reduction of the consumption of dry standard food [4] | glucose sensitivity in the glucose tolerance test ([3]; obese rats, five-day treatment) |
| --- | --- | --- | --- | --- | --- | --- | --- | --- | --- |
|  |  | O=c1c(CO)n[nH]c2ccccc12 [Compound 1] | increased |  |  |  |  |  |  |
| slight decrease | slight decrease | O=c1c(CO)n[nH]c2ccc(Cl)cc12 [Compound 3, 6-Chloro-3-(hydroxymethyl)cinnolin-4(1H)-one] | did not affect | significant difference to the Ob group | 24% | 20% | 22.2 ± 4.5 g | 46% |  |
| slight decrease | slight decrease | O=c1c(CO)n[nH]c2ccc(Br)cc12 [Compound 4, 6-Bromo-3-(hydroxymethyl)cinnolin-4(1H)-one] | did not affect | significant difference to the Ob group | 20% | 17% | 22.6 ± 4.0 g | 39% | improved |
